Experiment [1] addresses T1, M1-DD (Amycolatopsis mediterranei, UniProt O54666).
T1 construct: gene rifA; RIFS module 1 (KS-AT-DH0-KR-CP) with N- and C-terminal docking domains of the erythromycin assembly line, C-terminal His6; holo form, E. coli BAP1; homodimer
The experiment in a line: cryo-EM structure. In kind it is binding. The note with it: covalent on CP Ser1538; Ppant occupies KS active site tunnel; elongation mode; 3.22 Å; Fab 1B2 bound.

The target in experiment [2] is T2, LM-M1-DD (Amycolatopsis mediterranei, UniProt O54666).
T2 construct: gene rifA; RIFS loading module plus module 1 bimodule (A-CP, KS-AT-DH0-KR-CP) with C-terminal docking domain (DD) of the erythromycin synthase; holo form, E. coli BAP1; Ni-NTA purified; homodimer
Nature of the experiment: LC-MS/MS-MRM of hydrolysed diketide, single turnover. In kind it is biochemical. The conditions noted are these: ATP/Mg2+, racemic MeMal-CoA, pH 7.3, room temperature.

Experiment [3] deals with T3, LM-M1-TEII° (Amycolatopsis mediterranei, UniProt O54666).
T3 construct: gene rifA; holo form, E. coli BAP1; homodimer
Described as above. Format: biochemical. The note with it: ATP/Mg2+, racemic MeMal-CoA, NADPH; pH 7.3; room temperature.

T2 sequence (O54666 1-2179 limits assumed): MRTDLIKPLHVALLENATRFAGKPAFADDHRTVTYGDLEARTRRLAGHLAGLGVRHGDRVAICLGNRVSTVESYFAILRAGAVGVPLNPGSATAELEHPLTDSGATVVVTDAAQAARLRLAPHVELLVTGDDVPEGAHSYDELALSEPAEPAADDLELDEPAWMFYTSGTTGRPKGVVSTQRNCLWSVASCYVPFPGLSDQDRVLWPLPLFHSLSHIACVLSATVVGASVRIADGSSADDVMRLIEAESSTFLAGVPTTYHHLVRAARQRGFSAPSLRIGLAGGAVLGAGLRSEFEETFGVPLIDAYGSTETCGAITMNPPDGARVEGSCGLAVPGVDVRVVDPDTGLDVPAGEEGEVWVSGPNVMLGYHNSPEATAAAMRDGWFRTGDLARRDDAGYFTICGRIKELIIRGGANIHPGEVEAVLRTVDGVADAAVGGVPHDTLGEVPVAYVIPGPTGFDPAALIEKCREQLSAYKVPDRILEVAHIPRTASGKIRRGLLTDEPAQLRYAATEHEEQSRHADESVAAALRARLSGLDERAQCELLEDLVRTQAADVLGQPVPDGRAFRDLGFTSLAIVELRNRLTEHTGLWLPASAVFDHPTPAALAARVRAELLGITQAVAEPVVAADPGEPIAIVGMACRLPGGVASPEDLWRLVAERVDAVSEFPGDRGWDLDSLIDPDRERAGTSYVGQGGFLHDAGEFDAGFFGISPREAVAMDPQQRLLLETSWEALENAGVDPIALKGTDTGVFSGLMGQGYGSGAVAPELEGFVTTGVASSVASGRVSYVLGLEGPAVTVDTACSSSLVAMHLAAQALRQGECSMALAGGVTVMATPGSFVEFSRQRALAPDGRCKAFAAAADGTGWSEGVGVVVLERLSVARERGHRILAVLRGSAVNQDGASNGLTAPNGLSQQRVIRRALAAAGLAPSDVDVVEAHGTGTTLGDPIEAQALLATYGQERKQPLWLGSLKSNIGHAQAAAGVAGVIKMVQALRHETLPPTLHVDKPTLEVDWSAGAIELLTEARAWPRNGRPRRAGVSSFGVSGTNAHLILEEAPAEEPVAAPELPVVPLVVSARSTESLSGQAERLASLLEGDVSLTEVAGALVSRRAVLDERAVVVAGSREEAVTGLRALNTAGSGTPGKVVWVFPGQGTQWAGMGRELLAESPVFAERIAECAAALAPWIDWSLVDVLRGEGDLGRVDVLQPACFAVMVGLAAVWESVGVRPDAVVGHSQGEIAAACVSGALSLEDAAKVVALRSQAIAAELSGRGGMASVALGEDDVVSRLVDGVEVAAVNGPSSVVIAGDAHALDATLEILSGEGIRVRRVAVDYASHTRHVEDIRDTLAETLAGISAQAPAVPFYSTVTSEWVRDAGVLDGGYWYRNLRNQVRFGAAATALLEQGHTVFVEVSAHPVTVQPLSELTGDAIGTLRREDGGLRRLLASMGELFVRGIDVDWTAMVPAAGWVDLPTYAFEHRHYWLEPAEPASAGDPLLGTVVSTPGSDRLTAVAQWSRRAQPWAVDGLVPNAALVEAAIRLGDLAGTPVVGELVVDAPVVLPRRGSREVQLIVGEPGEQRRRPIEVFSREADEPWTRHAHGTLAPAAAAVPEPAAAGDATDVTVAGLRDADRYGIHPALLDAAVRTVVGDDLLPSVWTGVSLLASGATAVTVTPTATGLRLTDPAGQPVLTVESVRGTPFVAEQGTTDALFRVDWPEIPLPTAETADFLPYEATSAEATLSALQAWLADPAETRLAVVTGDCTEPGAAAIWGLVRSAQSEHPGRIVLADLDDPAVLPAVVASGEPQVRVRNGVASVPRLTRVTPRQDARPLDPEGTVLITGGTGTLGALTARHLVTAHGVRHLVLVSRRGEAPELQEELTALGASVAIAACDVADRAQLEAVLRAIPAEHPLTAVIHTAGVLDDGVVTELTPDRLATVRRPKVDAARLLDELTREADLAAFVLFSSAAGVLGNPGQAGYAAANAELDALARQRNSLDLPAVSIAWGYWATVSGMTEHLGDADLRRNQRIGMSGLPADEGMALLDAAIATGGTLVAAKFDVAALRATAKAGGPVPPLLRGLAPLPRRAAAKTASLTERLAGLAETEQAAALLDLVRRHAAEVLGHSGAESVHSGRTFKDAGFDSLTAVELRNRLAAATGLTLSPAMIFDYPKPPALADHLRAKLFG
T3 sequence (O54666 1-2180 limits assumed): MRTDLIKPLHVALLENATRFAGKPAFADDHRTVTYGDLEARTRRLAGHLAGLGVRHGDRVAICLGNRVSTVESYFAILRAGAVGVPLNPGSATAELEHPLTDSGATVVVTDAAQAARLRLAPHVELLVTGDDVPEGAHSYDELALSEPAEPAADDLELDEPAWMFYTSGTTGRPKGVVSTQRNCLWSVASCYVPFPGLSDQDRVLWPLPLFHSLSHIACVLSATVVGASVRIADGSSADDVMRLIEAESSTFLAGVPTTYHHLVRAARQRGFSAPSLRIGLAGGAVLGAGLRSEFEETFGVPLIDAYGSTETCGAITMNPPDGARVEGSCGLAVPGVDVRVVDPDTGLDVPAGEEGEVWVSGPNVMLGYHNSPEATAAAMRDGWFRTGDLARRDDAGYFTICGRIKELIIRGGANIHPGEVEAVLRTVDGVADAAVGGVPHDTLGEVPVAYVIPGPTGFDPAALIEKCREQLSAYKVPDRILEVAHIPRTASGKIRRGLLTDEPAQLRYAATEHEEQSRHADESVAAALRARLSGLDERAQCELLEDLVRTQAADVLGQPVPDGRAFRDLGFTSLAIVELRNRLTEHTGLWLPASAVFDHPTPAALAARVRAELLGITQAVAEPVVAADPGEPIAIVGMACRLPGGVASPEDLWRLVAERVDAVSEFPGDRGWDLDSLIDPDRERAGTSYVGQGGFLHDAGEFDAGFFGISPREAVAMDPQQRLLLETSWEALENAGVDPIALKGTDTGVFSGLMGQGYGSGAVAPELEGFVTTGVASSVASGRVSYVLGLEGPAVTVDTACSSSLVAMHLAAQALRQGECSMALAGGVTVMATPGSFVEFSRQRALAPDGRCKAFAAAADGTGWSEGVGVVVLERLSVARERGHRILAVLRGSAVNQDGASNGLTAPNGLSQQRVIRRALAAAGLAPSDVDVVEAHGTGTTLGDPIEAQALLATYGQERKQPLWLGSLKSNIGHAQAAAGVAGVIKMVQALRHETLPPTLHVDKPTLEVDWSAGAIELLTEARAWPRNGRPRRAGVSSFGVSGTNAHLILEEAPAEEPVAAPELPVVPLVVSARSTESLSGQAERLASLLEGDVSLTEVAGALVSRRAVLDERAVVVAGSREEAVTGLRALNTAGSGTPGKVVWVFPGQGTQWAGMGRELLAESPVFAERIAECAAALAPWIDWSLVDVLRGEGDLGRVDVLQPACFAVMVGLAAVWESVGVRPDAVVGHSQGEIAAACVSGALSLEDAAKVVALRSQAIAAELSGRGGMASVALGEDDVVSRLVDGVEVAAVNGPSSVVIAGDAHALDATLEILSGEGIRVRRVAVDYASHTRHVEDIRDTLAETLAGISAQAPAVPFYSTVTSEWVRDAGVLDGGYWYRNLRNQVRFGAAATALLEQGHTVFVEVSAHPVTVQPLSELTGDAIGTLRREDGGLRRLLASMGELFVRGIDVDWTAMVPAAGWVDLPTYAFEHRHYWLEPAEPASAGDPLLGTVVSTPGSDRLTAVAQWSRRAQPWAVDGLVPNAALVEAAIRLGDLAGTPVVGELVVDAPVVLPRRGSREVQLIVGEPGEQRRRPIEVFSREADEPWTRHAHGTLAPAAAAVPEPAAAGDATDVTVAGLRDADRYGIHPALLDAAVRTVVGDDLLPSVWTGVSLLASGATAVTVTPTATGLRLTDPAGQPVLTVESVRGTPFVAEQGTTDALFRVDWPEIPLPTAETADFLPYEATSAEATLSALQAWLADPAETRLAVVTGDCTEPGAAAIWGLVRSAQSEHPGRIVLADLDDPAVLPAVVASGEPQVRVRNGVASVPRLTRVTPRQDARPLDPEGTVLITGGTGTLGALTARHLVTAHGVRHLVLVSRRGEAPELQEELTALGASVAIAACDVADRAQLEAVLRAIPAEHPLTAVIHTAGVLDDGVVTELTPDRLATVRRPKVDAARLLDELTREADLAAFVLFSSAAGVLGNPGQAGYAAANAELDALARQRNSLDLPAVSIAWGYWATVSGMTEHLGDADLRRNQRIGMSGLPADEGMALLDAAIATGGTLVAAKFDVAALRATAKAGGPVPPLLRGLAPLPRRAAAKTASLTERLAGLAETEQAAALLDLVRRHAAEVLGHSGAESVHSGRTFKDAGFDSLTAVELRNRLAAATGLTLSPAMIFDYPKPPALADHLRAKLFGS
T3 sequence (Q7BUF9 1-259 S94A partner): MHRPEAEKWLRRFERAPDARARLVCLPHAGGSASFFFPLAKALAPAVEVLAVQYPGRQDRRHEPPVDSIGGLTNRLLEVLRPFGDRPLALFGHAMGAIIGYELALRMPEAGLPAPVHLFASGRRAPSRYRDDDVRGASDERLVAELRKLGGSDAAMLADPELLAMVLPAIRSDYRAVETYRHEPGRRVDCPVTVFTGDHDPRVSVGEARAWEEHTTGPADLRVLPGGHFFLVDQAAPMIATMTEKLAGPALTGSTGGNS

In the case of `CC(C)(COP(=O)(O)O)[C@@H](O)C(=O)NCCC(=O)NCCS` [4′-phosphopantetheine], the cryo-EM structure entry in experiment [1] is recorded as “within the KS active site tunnel occupied by the Ppant cofactor”. On to `NC(=O)C1=CN([C@@H]2O[C@H](COP(=O)(O)OP(=O)(O)OC[C@H]3O[C@@H](n4cnc5c(N)ncnc54)[C@H](OP(=O)(O)O)[C@@H]3O)[C@@H](O)[C@H]2O)C=CC1` [NADPH], for which the “LC-MS/MS-MRM of hydrolysed diketide, single turnover” value in experiment [2] (1 mM NADPH present or absent, benzoate) was “expected time- and NADPH-dependent accumulation of hydrolyzed keto-d2”. Take `O=C(O)c1ccccc1` [benzoate]: the “LC-MS/MS-MRM of hydrolysed diketide, single turnover” value was “both LM-M1-DD and LM-M1-TEII° were catalytically active” in experiment [2] (NADPH); “both LM-M1-DD and LM-M1-TEII° were catalytically active” in experiment [3].
